{"source": "patent US10647965B2", "about": "“Hetero-transglycosylase and uses thereof” (BASF SE, priority 2013, dated 2020)", "origin": "cited, not measured here", "test_system": "XTHs (xyloglucan endotransglucosylases)", "settings": "read-out: KM for XXXGol, comparison value, donor not stated", "data": [{"compound": "OC[C@@H](O)[C@@H](O[C@@H]1O[C@H](CO[C@H]2OC[C@@H](O)[C@H](O)[C@H]2O)[C@@H](O[C@@H]2O[C@H](CO[C@H]3OC[C@@H](O)[C@H](O)[C@H]3O)[C@@H](O[C@@H]3O[C@H](CO[C@H]4OC[C@@H](O)[C@H](O)[C@H]4O)[C@@H](O)[C@H](O)[C@H]3O)[C@H](O)[C@H]2O)[C@H](O)[C@H]1O)[C@H](O)[C@@H](O)CO", "note": "[XXXGol, Xyl3.Glc3.glucitol]", "values": [{"measurement": "Km", "result": "50 to 200", "unit": "µM"}]}]}
